Results as given in US20040132780A1, “Method and compositions for treating migraines” (priority 2001, published 2004).

Test: pharmacokinetics of etoricoxib compared to traditional NSAIDs
Assay type: in vivo
Conditions: as compared to traditional NSAIDs such as naproxen

## Cc1ccc(-c2ncc(Cl)cc2-c2ccc(S(C)(=O)=O)cc2)cn1 [Etoricoxib, etoricoxib]
  half-life: longer
  time to maximum concentration: shorter
